The values below come from ChEMBL document CHEMBL6078729, “Synthetic glycol-split heparin tri- and tetrasaccharides provide new insights into structural peculiarities for antiheparanase activity” (Bioorg Med Chem, 2025).

This assay addresses T1, Heparanase (Homo sapiens, UniProt Q9Y251).
T1 sequence (Q9Y251 whole entry): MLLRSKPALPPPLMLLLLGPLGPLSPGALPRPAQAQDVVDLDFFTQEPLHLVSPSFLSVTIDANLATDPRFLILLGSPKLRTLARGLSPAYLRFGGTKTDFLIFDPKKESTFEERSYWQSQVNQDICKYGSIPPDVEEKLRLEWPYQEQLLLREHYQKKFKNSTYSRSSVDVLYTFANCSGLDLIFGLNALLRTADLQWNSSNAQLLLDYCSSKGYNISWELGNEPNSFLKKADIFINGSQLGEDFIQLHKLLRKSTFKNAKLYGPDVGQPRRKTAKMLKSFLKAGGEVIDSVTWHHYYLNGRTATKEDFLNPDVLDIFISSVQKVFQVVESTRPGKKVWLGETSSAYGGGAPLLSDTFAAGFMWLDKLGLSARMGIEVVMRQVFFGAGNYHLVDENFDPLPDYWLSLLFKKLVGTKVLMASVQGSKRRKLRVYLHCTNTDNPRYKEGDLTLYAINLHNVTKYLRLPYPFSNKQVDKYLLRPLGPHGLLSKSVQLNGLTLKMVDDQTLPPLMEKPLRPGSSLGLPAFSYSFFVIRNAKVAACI
The experiment in a line: Inhibition of recombinant human heparanase assessed as fondaparinux cleavage by measuring disaccharide by colorimetric analysis.
Broadly, the IC50 is the concentration needed to halve the response being measured. With `CO[C@H]1O[C@H](COS(=O)(=O)O)[C@@H](O[C@@H]2O[C@@H](C(=O)O)[C@@H](O[C@H]3O[C@H](COS(=O)(=O)O)[C@@H](O[C@@H]4O[C@@H](C(=O)O)[C@@H](OC)[C@H](O)[C@H]4O)[C@H](O)[C@H]3NS(=O)(=O)O)[C@H](O)[C@H]2O)[C@H](O)[C@H]1NS(=O)(=O)O`, the IC50 is more than 85.3 µM.
In the case of `CO[C@H]1O[C@H](COS(=O)(=O)O)[C@@H](O[C@@H](CO)O[C@@H](C(=O)O)[C@@H](CO)O[C@H]2O[C@H](COS(=O)(=O)O)[C@@H](OC)[C@H](O)[C@H]2NS(=O)(=O)O)[C@H](O)[C@H]1NS(=O)(=O)O` it was 37.9 µM.
In the case of `CO[C@H]1O[C@H](COS(=O)(=O)O)[C@@H](O[C@@H](CO)O[C@H](C(=O)O)[C@@H](CO)O[C@H]2O[C@H](COS(=O)(=O)O)[C@@H](OC)[C@H](O)[C@H]2NS(=O)(=O)O)[C@H](O)[C@H]1NS(=O)(=O)O` it was 76.8 µM.
Next, `CO[C@H]1O[C@H](COS(=O)(=O)O)[C@@H](O[C@H](O[C@H](C(=O)O)[C@H](O[C@H]2O[C@H](COS(=O)(=O)O)[C@@H](OC)[C@H](O)[C@H]2NS(=O)(=O)O)C(=O)O)C(=O)O)[C@H](O)[C@H]1NS(=O)(=O)O`: 71.5 µM; `CO[C@H]1O[C@H](COS(=O)(=O)O)[C@@H](O[C@H](O[C@@H](C(=O)O)[C@@H](O[C@H]2O[C@H](COS(=O)(=O)O)[C@@H](O[C@H](O[C@@H](C(=O)O)[C@@H](OC)C(=O)O)C(=O)O)[C@H](O)[C@H]2NS(=O)(=O)O)C(=O)O)C(=O)O)[C@H](O)[C@H]1NS(=O)(=O)O`: 7.57 µM.
In the case of `CO[C@H]1O[C@H](COS(=O)(=O)O)[C@@H](O[C@@H]2O[C@H](C(=O)O)[C@@H](O[C@H]3O[C@H](COS(=O)(=O)O)[C@@H](OC)[C@H](O)[C@H]3NS(=O)(=O)O)[C@H](O)[C@H]2O)[C@H](O)[C@H]1NS(=O)(=O)O`, the IC50 was more than 103 µM.
In the case of `CO[C@H]1O[C@H](COS(=O)(=O)O)[C@@H](O[C@@H]2O[C@@H](C(=O)O)[C@@H](O[C@H]3O[C@H](COS(=O)(=O)O)[C@@H](OC)[C@H](O)[C@H]3NS(=O)(=O)O)[C@H](O)[C@H]2O)[C@H](O)[C@H]1NS(=O)(=O)O` it was more than 103 µM; in that of `CO[C@H]1O[C@H](COS(=O)(=O)O)[C@@H](O[C@H](O[C@@H](C(=O)O)[C@H](O[C@H]2O[C@H](COS(=O)(=O)O)[C@@H](OC)[C@H](O)[C@H]2NS(=O)(=O)O)C(=O)O)C(=O)O)[C@H](O)[C@H]1NS(=O)(=O)O`, more than 95.4 µM.
Next, `CO[C@H]1O[C@H](COS(=O)(=O)O)[C@@H](O[C@@H](CO)O[C@@H](C(=O)O)[C@H](CO)O[C@H]2O[C@H](COS(=O)(=O)O)[C@@H](O[C@@H](CO)O[C@@H](C(=O)O)[C@H](CO)OC)[C@H](O)[C@H]2NS(=O)(=O)O)[C@H](O)[C@H]1NS(=O)(=O)O`: 63.7 µM.
